We go through ten molecules from patent publication US11492335B2, “Aryl or heteroaryl triazolone derivatives or salts thereof, or pharmaceutical compositions comprising the same” (YUHAN CORPORATION, priority 2018, dated 2022).

Structures can show the parent of a compound that is named as a salt. Where two headings read alike, the source gives them in different places.

Holding throughout (assay type): biochemical
Assay [1] deals with T1, recombinant human VAP-1 (Homo sapiens, UniProt Q16853).
T1 construct: purchased R&D systems
T1 sequence (Q16853 1-763): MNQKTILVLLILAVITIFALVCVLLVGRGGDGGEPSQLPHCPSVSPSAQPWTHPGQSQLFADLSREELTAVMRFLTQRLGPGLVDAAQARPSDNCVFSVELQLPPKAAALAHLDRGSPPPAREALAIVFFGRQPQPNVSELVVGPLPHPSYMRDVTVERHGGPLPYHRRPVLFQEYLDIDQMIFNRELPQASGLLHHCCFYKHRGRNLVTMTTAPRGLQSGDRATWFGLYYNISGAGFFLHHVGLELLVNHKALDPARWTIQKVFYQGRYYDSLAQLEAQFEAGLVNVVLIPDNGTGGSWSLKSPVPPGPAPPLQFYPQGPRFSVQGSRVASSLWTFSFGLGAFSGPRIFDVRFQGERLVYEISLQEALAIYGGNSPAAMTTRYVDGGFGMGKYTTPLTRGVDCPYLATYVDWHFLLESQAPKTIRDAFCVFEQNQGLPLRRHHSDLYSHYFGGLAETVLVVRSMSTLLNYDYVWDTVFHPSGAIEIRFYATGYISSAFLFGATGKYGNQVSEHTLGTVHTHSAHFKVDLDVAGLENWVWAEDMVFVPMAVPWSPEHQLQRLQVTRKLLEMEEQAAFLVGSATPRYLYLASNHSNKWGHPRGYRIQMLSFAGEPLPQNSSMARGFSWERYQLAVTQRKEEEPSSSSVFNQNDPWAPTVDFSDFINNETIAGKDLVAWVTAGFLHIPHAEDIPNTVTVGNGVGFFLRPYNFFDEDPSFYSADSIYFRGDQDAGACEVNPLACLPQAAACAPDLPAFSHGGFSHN
As to the kind of experiment: Activity on recombinant human VAP-1, Amplex Red HRP-coupled hydrogen peroxide assay, benzylamine substrate. The settings on record: recombinant human VAP-1, benzylamine substrate, read-out: Inhibitory Activity (IC50, nM) human VAP-1. The gist of the method: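 Compounds were preincubated with purified enzyme in 50 mM sodium phosphate pH 7.4 at 37 °C for 30 min, then 200 uM Amplex Red, 1 mM benzylamine and 1 U/mL HRP were added. Resorufin fluorescence (ex 544/em 590 nm) was followed over 1-2 h; IC50 came from 4-parameter fits of signal-rate inhibition.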

In assay [2] the target is T2, recombinant human MAO-A (monoamine oxidase-A) (Homo sapiens, UniProt P21397).
T2 construct: purchased Sigma-Aldrich
T2 sequence (P21397 1-527): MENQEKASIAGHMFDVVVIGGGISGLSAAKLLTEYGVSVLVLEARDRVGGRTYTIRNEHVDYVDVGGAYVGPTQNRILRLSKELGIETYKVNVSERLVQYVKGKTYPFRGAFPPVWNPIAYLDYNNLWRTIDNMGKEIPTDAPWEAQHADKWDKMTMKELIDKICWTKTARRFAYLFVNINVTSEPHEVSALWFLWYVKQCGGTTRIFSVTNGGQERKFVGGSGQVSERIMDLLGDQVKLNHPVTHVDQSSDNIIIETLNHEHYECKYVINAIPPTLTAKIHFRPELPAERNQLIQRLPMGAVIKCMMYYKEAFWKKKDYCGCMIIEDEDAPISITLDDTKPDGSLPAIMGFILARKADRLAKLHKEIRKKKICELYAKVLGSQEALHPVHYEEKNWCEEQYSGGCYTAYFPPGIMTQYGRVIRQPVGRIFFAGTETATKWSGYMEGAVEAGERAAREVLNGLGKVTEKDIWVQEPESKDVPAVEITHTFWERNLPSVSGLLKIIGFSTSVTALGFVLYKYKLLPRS
As to the kind of experiment: Activity on recombinant human MAO-A, Amplex Red method, 0.5 mM tyramine substrate. The settings on record: read-out: Inhibitory Activity (IC50, nM) MAO-A. The gist of the method: (§1)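 8-point, 1:3 dose-response, four-parameter logistic IC50 from reduction in fluorescence rate versus DMSO control. HRP/Amplex Red detection of H2O2 (ex 544, em 590 nm) after 30 min, 37 °C compound–enzyme preincubation in pH 7.4 phosphate buffer. MAO-A substrate: 0.5 mM tyramine; MAO-B: 1 mM benzylamine.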

Assay [3] has as its target T3, recombinant human MAO-B (monoamine oxidase-B) (Homo sapiens, UniProt P27338).
T3 construct: purchased Sigma-Aldrich
T3 sequence (P27338 1-520): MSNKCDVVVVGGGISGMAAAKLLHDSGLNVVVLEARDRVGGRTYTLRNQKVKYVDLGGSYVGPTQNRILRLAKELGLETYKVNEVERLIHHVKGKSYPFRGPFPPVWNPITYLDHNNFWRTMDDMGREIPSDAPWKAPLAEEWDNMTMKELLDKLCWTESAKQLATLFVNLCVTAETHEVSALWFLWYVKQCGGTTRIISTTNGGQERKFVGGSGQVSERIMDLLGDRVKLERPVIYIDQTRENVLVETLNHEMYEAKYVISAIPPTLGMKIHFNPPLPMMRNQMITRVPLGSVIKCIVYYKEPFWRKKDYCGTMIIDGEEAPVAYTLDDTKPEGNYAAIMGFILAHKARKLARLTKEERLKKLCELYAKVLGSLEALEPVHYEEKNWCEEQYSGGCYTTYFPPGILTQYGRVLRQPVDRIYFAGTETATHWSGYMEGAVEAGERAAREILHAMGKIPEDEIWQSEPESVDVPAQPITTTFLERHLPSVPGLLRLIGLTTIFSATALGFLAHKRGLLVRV
As to the kind of experiment: Activity on recombinant human MAO-B, Amplex Red method, 1 mM benzylamine substrate. The settings on record: read-out: Inhibitory Activity (IC50, nM) MAO-B. The gist of the method: as §1

In assay [4] the target is T4, recombinant human DAO (diamine oxidase) (Homo sapiens, UniProt P19801).
T4 construct: purchased R&D systems
T4 sequence (P19801 20-751): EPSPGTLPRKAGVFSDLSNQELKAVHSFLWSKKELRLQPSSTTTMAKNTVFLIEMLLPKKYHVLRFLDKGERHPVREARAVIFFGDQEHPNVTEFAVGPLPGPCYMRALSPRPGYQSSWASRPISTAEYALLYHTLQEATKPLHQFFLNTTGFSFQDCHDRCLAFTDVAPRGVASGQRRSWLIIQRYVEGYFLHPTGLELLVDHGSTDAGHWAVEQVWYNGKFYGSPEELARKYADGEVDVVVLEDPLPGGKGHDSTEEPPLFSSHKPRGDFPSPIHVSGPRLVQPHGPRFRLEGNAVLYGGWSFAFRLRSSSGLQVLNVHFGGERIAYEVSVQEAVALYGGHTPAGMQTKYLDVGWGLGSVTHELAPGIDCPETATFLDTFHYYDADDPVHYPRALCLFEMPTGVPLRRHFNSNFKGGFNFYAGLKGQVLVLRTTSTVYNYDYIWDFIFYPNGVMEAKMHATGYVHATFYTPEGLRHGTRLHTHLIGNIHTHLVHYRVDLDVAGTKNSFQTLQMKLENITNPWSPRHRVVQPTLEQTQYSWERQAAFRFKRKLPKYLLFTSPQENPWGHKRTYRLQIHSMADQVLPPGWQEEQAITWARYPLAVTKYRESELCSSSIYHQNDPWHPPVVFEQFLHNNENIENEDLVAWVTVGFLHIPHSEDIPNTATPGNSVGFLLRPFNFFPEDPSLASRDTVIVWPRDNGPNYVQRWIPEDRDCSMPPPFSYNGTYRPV
As to the kind of experiment: Activity on recombinant human DAO, Amplex Red method, 1 mM putrescine substrate. Conditions: recombinant human DAO, read-out: Inhibitory Activity (IC50, nM) DAO. The gist of the method: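 Inhibition of recombinant human DAO (diamine oxidase, R&D systems) was assessed with the Amplex Red Hydrogen Peroxide Assay Kit. Hydrogen peroxide produced from 1 mM putrescine was detected through an HRP-coupled reaction that converts Amplex Red into fluorescent resorufin, read at 544 nm excitation and 590 nm emission. IC50 values came from four-parameter logistic fits in GraphPad Prism.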

Where [5] appears, read: 1 mM putrescine, * = between 10 and 100 nM, ** = between 300 and 1000 nM.

For orientation: IC50 means the concentration that inhibits the measured activity by half.

In the case of `CC(=O)Nc1nc2cc(-c3cnc(-n4cnn(C/C(=C/F)CN)c4=O)cn3)ccc2s1` [Example 225, N-[5-(5-{1-[(2E)-2-(aminomethyl)-3-fluoroprop-2-en-1-yl]-5-oxo-1,5-dihydro-4H-1,2,4-triazol-4-yl}pyrazin-2-yl)-1,3-benzothiazol-2-yl]acetamide], the 50% inhibitory concentration (IC50) was 1 nM in assay [1], over 100000 nM in assay [2] (0.5 mM tyramine substrate), 53 nM in assay [3] (1 mM benzylamine substrate) and under 100 nM in assay [4] (1 mM putrescine substrate).
For the molecule `NC/C(=C\F)Cn1ncn(-c2cccc(C#Cc3cnc4c(c3)NCCO4)n2)c1=O` [Example 251, 2-[(E)-2-(aminomethyl)-3-fluoro-allyl]-4-[6-[2-(2,3-dihydro-1H-pyrido[2,3-b][1,4]oxazin-7-yl)ethynyl]-2-pyridyl]-1,2,4-triazol-3-one], the IC50 in assay [1] is 0.3 nM; in assay [2] (0.5 mM tyramine substrate), over 100000 nM; in assay [3] (1 mM benzylamine substrate), over 10000 nM; in assay [4] (1 mM putrescine substrate), 21 nM.
Consider `Cc1cc(-c2cccc(-n3cnn(C/C(=C/F)CN)c3=O)n2)cc2c1NC(=O)CC2` [Example 197, 6-(6-{1-[(2E)-2-(aminomethyl)-3-fluoroprop-2-en-1-yl]-5-oxo-1,5-dihydro-4H-1,2,4-triazol-4-yl}pyridin-2-yl)-8-methyl-3,4-dihydroquinolin-2(1H)-one hydrochloride], for which the half-maximal inhibitory concentration (IC50) in assay [1] stood at 0.08 nM; in assay [2] (0.5 mM tyramine substrate), 81000 nM; in assay [3] (1 mM benzylamine substrate) it was 250 nM; in assay [4] (1 mM putrescine substrate) it was 2.6 nM.
As for `NC/C(=C\F)Cn1ncn(-c2cccc(-c3ccc(N4CCOCC4)c(F)c3)c2)c1=O` [Example 75, 2-[(2E)-2-(aminomethyl)-3-fluoroprop-2-en-1-yl]-4-[3′-fluoro-4′-(morpholin-4-yl)biphenyl-3-yl]-2,4-dihydro-3H-1,2,4-triazol-3-one hydrochloride], the IC50 in assay [1] (30 min preincubation at 37° C.) was 0.93 nM; in assay [2] (0.5 mM tyramine) it was over 100000 nM; in assay [3] (1 mM benzylamine), over 10000 nM; in assay [4] (setting [5]) it was under 100 nM.
As for `NC/C(=C\F)Cn1ncn(-c2cc(-c3ccc(N4CCOCC4)nc3)ccn2)c1=O` [Example 169, 2-[(2E)-2-(aminomethyl)-3-fluoroprop-2-en-1-yl]-4-[6-(morpholin-4-yl)-3,4′-bipyridin-2′-yl]-2,4-dihydro-3H-1,2,4-triazol-3-one], the IC50 in assay [1] was 0.28 nM; in assay [2] (0.5 mM tyramine substrate), over 100000 nM; in assay [3] (1 mM benzylamine substrate) it was over 10000 nM; in assay [4] (1 mM putrescine substrate), under 30 nM.
As for `NC/C(=C\F)Cn1ncn(-c2cnc(-c3ccc(N4CCOCC4)nc3)cn2)c1=O` [Example 221, 2-[(2E)-2-(aminomethyl)-3-fluoroprop-2-en-1-yl]-4-{5-[6-(morpholin-4-yl)pyridin-3-yl]pyrazin-2-yl}-2,4-dihydro-3H-1,2,4-triazol-3-one], the IC50 is 1.9 nM in assay [1], over 100000 nM in assay [2] (0.5 mM tyramine substrate), 650 nM in assay [3] (1 mM benzylamine substrate) and under 100 nM in assay [4] (1 mM putrescine substrate).
As for `NC/C(=C\F)Cn1ncn(-c2ccnc(-c3ccc(N4CCOCC4)cc3)c2)c1=O` [Example 207, 2-[(2E)-2-(aminomethyl)-3-fluoroprop-2-en-1-yl]-4-{2-[4-(morpholin-4-yl)phenyl]pyridin-4-yl}-2,4-dihydro-3H-1,2,4-triazol-3-one hydrochloride], the IC50 was 0.45 nM in assay [1], over 100000 nM in assay [2] (0.5 mM tyramine substrate), 1400 nM in assay [3] (1 mM benzylamine substrate) and under 10 nM in assay [4] (1 mM putrescine substrate).
As to `NC/C(=C\F)Cn1ncn(-c2cc(C#Cc3ccccn3)ccn2)c1=O` [Example 244, 2-[(2E)-2-(aminomethyl)-3-fluoroprop-2-en-1-yl]-4-[4-(pyridin-2-ylethynyl)pyridin-2-yl]-2,4-dihydro-3H-1,2,4-triazol-3-one hydrochloride], the half-inhibitory concentration (IC50) in assay [1] is 0.8 nM; in assay [2] (0.5 mM tyramine substrate), over 100000 nM; in assay [3] (1 mM benzylamine substrate), 100 nM; in assay [4] (1 mM putrescine substrate) it was 12 nM.
In the case of `CN(C)S(=O)(=O)c1ccc(-c2cccc(-n3cnn(C/C(=C/F)CN)c3=O)c2)cc1` [Example 55, 3′-{1-[(2E)-2-(aminomethyl)-3-fluoroprop-2-en-1-yl]-5-oxo-1,5-dihydro-4H-1,2,4-triazol-4-yl}-N,N-dimethylbiphenyl-4-sulfonamide hydrochloride], the half-maximal inhibitory concentration (IC50) in assay [1] (30 min preincubation at 37° C.) is 0.3 nM; in assay [2] (0.5 mM tyramine), over 100000 nM; in assay [3] (1 mM benzylamine) it was 1500 nM; in assay [4] (setting [5]), 1 nM.
Taken in the same sequence, the figures for `Cc1cc(-c2ccc(-c3nc[nH]n3)cc2)ncc1-n1cnn(C/C(=C/F)CN)c1=O` [Example 121, 2-[(2E)-2-(aminomethyl)-3-fluoroprop-2-en-1-yl]-4-{4-methyl-6-[4-(1H-1,2,4-triazol-3-yl)phenyl]pyridin-3-yl}-2,4-dihydro-3H-1,2,4-triazol-3-one] were 0.7 nM, over 100000 nM, 456 nM and under 100 nM.
